Among the data in PubChem BioAssay (NCI) are TGI and GI50 values, retold here.

Among the test systems are NCI-H226 lung; U251 CNS; MDA-MB-231 breast; OVCAR-3 ovarian; UACC-257 melanoma; HCT-15 colon; ACHN renal; SW-620 colon; KM12 colon; CCRF-CEM leukemia.
Common to all, as to assay: growth of human tumour cells (NCI), 48 h

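Tested at 5 concentrations; 48 h exposure; 96-well plates; endpoints linearly interpolated, else capped at highest concentration. The concentration for 50% growth inhibition is given as GI50. Definition used: TGI = concentration required for complete inhibition of growth.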

Turning to `CC(C)C1=Cc2ccc3c(c2C(=O)C1=O)CCCC3`, the TGI amounted to 36.1 µM with NCI-H226 lung; 42.4 µM in the experiment with U251 CNS; 34.1 µM in the experiment on MDA-MB-231 breast; 5.33 µM in the experiment with OVCAR-3 ovarian; 6.57 µM with UACC-257 melanoma; 9.03 µM in the experiment with HCT-15 colon. Also, the TGI stood at 7.13 µM in the experiment with ACHN renal, 14 µM in the experiment with SW-620 colon and 32.4 µM in the experiment on KM12 colon.

On to `C=CCCn1nc(-c2ccccc2)oc1=O`, for which the TGI in the experiment on NCI-H226 lung, with U251 CNS, in the experiment on OVCAR-3 ovarian, with UACC-257 melanoma, in the experiment with CCRF-CEM leukemia and in the experiment with HCT-15 colon was > 100 µM throughout. Moreover, the TGI in the experiment on ACHN renal, with SW-620 colon and in the experiment with KM12 colon was > 100 µM throughout.

Regarding `CN(C)CC1(C)CC/C(=C\c2ccc(Cl)cc2)C1=O` (centres undefined), the TGI was > 100 µM in the experiment on NCI-H226 lung; > 100 µM with U251 CNS; > 100 µM in the experiment on OVCAR-3 ovarian; > 100 µM in the experiment with UACC-257 melanoma; 68.4 µM with CCRF-CEM leukemia; > 100 µM in the experiment on HCT-15 colon. Further, the TGI is > 100 µM with ACHN renal, 35.5 µM in the experiment with SW-620 colon and 80.3 µM in the experiment with KM12 colon.

Turning to `CCCN(CCC)c1ccc(/C=N/NC(=O)c2cccnc2)c(C)c1`, the GI50 in the experiment with NCI-H226 lung was 12 µM; in the experiment with U251 CNS, 13.3 µM; in the experiment on OVCAR-3 ovarian, 13 µM; with UACC-257 melanoma, 12.3 µM; in the experiment on CCRF-CEM leukemia, 16.4 µM; in the experiment with HCT-15 colon it was 11.9 µM. For the same molecule, the GI50 was 24.5 µM with ACHN renal, 14.8 µM with SW-620 colon and 11.9 µM in the experiment with KM12 colon. For the same molecule, the TGI in the experiment on NCI-H226 lung was determined as 26.3 µM; in the experiment on U251 CNS, 26 µM; in the experiment on OVCAR-3 ovarian it was 27.8 µM; in the experiment with UACC-257 melanoma, 24.8 µM; with CCRF-CEM leukemia, 52.3 µM; with HCT-15 colon it was 47.8 µM. For the same molecule, the figures for the TGI in the experiment on ACHN renal, in the experiment on SW-620 colon and in the experiment on KM12 colon were > 100 µM, 35.7 µM and 24.5 µM, respectively.

In the case of `C[C@@H]1CC[C@@]2(C)OC(c3ccccc3)[C@H](CO)N2C1=O` (some centres undefined), the TGI in the experiment on U251 CNS, in the experiment on OVCAR-3 ovarian, with UACC-257 melanoma, in the experiment with HCT-15 colon, in the experiment with ACHN renal and in the experiment with SW-620 colon was > 100 µM in each case. Also, the TGI in the experiment on KM12 colon is > 100 µM.

On to `C=CC12CCCCC1CC(C(=O)OC)=C(O)C2` (centres undefined), for which the TGI in the experiment with NCI-H226 lung, with U251 CNS, in the experiment on OVCAR-3 ovarian, in the experiment with UACC-257 melanoma, with CCRF-CEM leukemia and in the experiment with ACHN renal was > 100 µM in each case. Moreover, the TGI in the experiment with SW-620 colon and in the experiment with KM12 colon was > 100 µM in each case.

For the molecule `CC1OC(n2cc(F)c(=O)[nH]c2=O)CCC1=O` (centres undefined), the TGI in the experiment on NCI-H226 lung, in the experiment with U251 CNS, in the experiment with UACC-257 melanoma, with CCRF-CEM leukemia, with HCT-15 colon and in the experiment on ACHN renal was > 100 µM each time. Moreover, the TGI in the experiment with SW-620 colon and in the experiment with KM12 colon was > 100 µM throughout.

In the case of `O/N=C1/CCCC/C1=C\c1ccc(Cl)c(Cl)c1`, the TGI in the experiment with U251 CNS was 38.9 µM; with OVCAR-3 ovarian, 49.7 µM; in the experiment with CCRF-CEM leukemia, 59.7 µM; with HCT-15 colon, > 100 µM; in the experiment on ACHN renal it was 71.8 µM; with SW-620 colon, > 100 µM.

Consider `CC(=O)N1c2ccccc2N(C(C)=O)C1c1ccc(C2N(C(C)=O)c3ccccc3N2C(C)=O)[nH]1`, for which the TGI with NCI-H226 lung, with U251 CNS, in the experiment on OVCAR-3 ovarian, in the experiment with UACC-257 melanoma, with CCRF-CEM leukemia and in the experiment on HCT-15 colon was > 100 µM in each case. Moreover, the TGI in the experiment with SW-620 colon and in the experiment with KM12 colon was > 100 µM each time.

In the case of `C=C(C)CC(C(=O)O)c1ccc(C)cc1` (centres undefined), the TGI in the experiment with U251 CNS, with OVCAR-3 ovarian, in the experiment on UACC-257 melanoma, in the experiment on HCT-15 colon, in the experiment on ACHN renal and in the experiment with SW-620 colon was > 100 µM in each case. Moreover, in the experiment with KM12 colon, the TGI was > 100 µM.

For `O=CCCn1[nH]c(=O)ccc1=O`, the TGI in the experiment with NCI-H226 lung, in the experiment on U251 CNS, in the experiment on OVCAR-3 ovarian, in the experiment with UACC-257 melanoma, with CCRF-CEM leukemia and in the experiment on HCT-15 colon was > 100 µM in each case. The TGI with ACHN renal and in the experiment with SW-620 colon was > 100 µM each time.

Take `NC1=NN(c2ccccc2)C(=O)C1C(=O)C(=O)Nc1ccccc1` (centres undefined): the TGI in the experiment on NCI-H226 lung, with U251 CNS, with OVCAR-3 ovarian, with UACC-257 melanoma, in the experiment on CCRF-CEM leukemia and with HCT-15 colon was > 100 µM each time. The TGI in the experiment on ACHN renal, in the experiment on SW-620 colon and in the experiment on KM12 colon was > 100 µM each time.

`COc1ccc(/C=C/c2onc3c(=O)n(C)nc(-c4ccccc4)c23)cc1`: the TGI with U251 CNS, in the experiment on CCRF-CEM leukemia, in the experiment with HCT-15 colon, in the experiment with ACHN renal and with SW-620 colon was > 100 µM in each case.

Turning to `O=CN/C=C/c1ccccc1`, the TGI with NCI-H226 lung, in the experiment on U251 CNS, in the experiment on OVCAR-3 ovarian, in the experiment on UACC-257 melanoma, in the experiment on CCRF-CEM leukemia and with HCT-15 colon was > 100 µM each time. Also, the TGI is > 100 µM in the experiment with ACHN renal, > 85.6 µM with SW-620 colon and > 100 µM in the experiment on KM12 colon.

As to `C[C@]12Cc3conc3C(O)=C1CC[C@@H]1C2CC[C@@]2(C)C1CC[C@@H]2O` (some centres undefined), the TGI in the experiment with NCI-H226 lung is 56.8 µM; in the experiment with U251 CNS it was 64.4 µM; with OVCAR-3 ovarian it was 52.5 µM; in the experiment with UACC-257 melanoma, > 100 µM; in the experiment on CCRF-CEM leukemia, 55.5 µM; with HCT-15 colon, > 100 µM. Further, the TGI in the experiment on ACHN renal was > 100 µM; in the experiment on SW-620 colon, > 100 µM; in the experiment on KM12 colon, 70.7 µM.
